Residues, ends and D or L forms follow the SMILES beside them.

For data set [1], the target named is T1, Solute carrier organic anion transporter family member 1B3 (Homo sapiens, UniProt Q9NPD5).
T1 sequence (Q9NPD5 whole entry): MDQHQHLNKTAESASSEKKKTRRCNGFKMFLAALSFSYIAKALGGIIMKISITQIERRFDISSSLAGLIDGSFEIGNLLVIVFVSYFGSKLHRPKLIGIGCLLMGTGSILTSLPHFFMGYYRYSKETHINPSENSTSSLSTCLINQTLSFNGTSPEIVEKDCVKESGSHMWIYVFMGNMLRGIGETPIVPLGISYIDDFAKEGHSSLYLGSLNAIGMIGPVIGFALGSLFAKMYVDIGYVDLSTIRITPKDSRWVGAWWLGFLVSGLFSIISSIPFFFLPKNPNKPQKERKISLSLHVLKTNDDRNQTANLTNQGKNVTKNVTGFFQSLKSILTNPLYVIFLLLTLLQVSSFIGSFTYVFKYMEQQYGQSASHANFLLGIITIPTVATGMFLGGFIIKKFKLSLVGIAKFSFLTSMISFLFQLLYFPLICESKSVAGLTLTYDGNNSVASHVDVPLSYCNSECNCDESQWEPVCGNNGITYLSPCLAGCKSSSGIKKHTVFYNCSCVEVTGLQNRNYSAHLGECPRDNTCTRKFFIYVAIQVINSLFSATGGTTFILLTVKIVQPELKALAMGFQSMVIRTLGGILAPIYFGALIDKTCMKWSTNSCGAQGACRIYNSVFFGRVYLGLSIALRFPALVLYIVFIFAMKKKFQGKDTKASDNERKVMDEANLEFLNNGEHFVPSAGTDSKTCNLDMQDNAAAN
The following applies: chinese hamster, cho, 10 µM.

The target in data set [2] is T2, Solute carrier organic anion transporter family member 1B1 (Homo sapiens, UniProt Q9Y6L6).
T2 sequence (Q9Y6L6 whole entry): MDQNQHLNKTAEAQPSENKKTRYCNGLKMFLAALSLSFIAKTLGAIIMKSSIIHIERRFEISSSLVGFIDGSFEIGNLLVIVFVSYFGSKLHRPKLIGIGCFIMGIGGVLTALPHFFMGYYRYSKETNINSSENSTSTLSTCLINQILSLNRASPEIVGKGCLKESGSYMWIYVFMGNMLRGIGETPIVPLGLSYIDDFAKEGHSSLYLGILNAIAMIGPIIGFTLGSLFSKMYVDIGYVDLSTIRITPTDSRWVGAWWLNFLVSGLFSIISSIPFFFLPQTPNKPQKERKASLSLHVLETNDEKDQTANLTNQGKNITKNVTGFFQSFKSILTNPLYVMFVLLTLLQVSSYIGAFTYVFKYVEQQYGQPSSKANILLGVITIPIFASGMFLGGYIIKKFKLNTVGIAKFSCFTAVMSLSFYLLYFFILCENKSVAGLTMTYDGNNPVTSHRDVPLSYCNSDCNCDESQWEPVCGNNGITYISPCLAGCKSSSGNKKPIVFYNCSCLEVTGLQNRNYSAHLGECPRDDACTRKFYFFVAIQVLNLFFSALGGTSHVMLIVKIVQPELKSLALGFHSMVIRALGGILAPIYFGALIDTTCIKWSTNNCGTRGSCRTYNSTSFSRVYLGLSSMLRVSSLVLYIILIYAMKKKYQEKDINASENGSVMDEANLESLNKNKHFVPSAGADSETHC
The following applies: chinese hamster, cho, 10 µM.

`Cc1onc(-c2ccccc2)c1-c1ccc(S(N)(=O)=O)cc1` [VALDECOXIB]: the values for the residual activity in data set [1] and in data set [2] were 94.41% and 120.4%, respectively.

Turning to `CCCCC(=O)Oc1ccccc1C(=O)O` [VALERYL SALYCILATE], the values for the residual activity in data set [1] and in data set [2] were 92.91% and 78.97%, respectively.

With `CCCC(CCC)C(=O)[O-].[Na+]` [VALPROATE SODIUM], the values for the residual activity in data set [1] and in data set [2] were 125.1% and 90.61%, respectively.

In the case of `CC(C)[C@H](N)C(=O)N[C@@H](Cc1c[nH]c2ccccc12)C(=O)O` [VALYLTRYPTOPHAN] (H-Val-Trp-OH), the residual activity in data set [1] turned out to be 102.8%; in data set [2], 100.2%.

Regarding `CN[C@H](CC(C)C)C(=O)N[C@H]1C(=O)N[C@@H](CC(N)=O)C(=O)N[C@H]2C(=O)N[C@H]3C(=O)N[C@H](C(=O)N[C@H](C(=O)O)c4cc(O)cc(O)c4-c4cc3ccc4O)[C@H](O)c3ccc(c(Cl)c3)Oc3cc2cc(c3O[C@@H]2O[C@H](CO)[C@@H](O)[C@H](O)[C@H]2O[C@H]2C[C@](C)(N)[C@H](O)[C@H](C)O2)Oc2ccc(cc2Cl)[C@H]1O.Cl` [VANCOMYCIN HYDROCHLORIDE], the figures for the residual activity in data set [1] and in data set [2] were 103.2% and 99.99%, respectively.

`Nc1c2c(nc3ccccc13)CCCC2O.O=C(O)/C=C\C(=O)O` (configuration not stated) [VELNACRINE MALEATE]: the residual activity in data set [1] was determined as 96.75%; in data set [2], 103.3%.

As to `COc1ccc(C(=O)O)cc1OC` [VERATRIC ACID], the residual activity in data set [1] stood at 106.9%; in data set [2], 111.3%.

Take `COc1ccc(C(=O)O[C@H]2CC[C@@]3(C)[C@@H]4CC[C@H]5[C@]6(O)C[C@H](O)[C@@]7(O)[C@@H](CN8C[C@@H](C)CC[C@H]8[C@@]7(C)O)[C@]6(O)C[C@@]53O[C@]24O)cc1OC` [VERATRIDINE]: the residual activity in data set [1] was 133.7%; in data set [2] it was 82.28%.

With `Cl.OC1CCCCC1N1CCC(c2ccccc2)CC1` (configuration not stated) [VESAMICOL HYDROCHLORIDE], the results for the residual activity in data set [1] and in data set [2] were 101.2% and 64.34%, respectively.

Turning to `C=CC(N)CCC(=O)O` (configuration not stated) [VIGABATRIN], the residual activity came to 94.41% in data set [1] and 78.69% in data set [2].

Take `CC[C@]12CCCN3CCc4c(n(c5ccccc45)C(=O)C1)[C@@H]32` [VINBURNINE]: the residual activity in data set [1] amounted to 115.3%; in data set [2] it was 97.38%.

Take `CC[C@]12CCCN3CCc4c(n(c5ccccc45)[C@@](O)(C(=O)OC)C1)[C@@H]32` [VINCAMINE]: the residual activity is 88.88% in data set [1] and 72.87% in data set [2].

Take `CCOC(=O)C1=C[C@]2(CC)CCCN3CCc4c(n1c1ccccc41)[C@@H]32` [VINPOCETINE]: the values for the residual activity in data set [1] and in data set [2] were 109.4% and 167.7%, respectively.

`COc1cc(C/C=C/c2ccccc2)c(OC)cc1O` [VIOLASTYRENE]: the residual activity was found to be 47.88% in data set [1] and 27.49% in data set [2].

As to `COc1c2ccoc2cc2oc(C)cc(=O)c12` [VISNAGIN], the residual activity in data set [1] is reported as 98.15%; in data set [2], 127.2%.

For the compound `CCCCCCCCCCCCCCCC(=O)OC/C=C(C)/C=C/C=C(C)/C=C/C1=C(C)CCCC1(C)C` [VITAMIN A PALMITATE], the residual activity was 85.92% in data set [1] and 77.04% in data set [2].

`COC(=O)/C(=C1/OC(=O)C(c2ccccc2)=C1O)c1ccccc1` [VULPINIC ACID]: the residual activity was determined as 83.34% in data set [1] and 57.14% in data set [2].

Regarding `CC(=O)CC(c1ccccc1)c1c(O)c2ccccc2oc1=O` (configuration not stated) [WARFARIN], the residual activity in data set [1] amounted to 66.67%; in data set [2], 122.2%.

With `O=c1c2ccccc2oc2ccccc12` [XANTHONE], the residual activity in data set [1] was 131.5%; in data set [2], 123.7%.

On to `Nc1nc(=O)c2[nH]c(=O)cnc2[nH]1` [XANTHOPTERIN], for which the residual activity in data set [1] was determined as 104.7%; in data set [2] it was 104.4%.

With `COc1cc(O)c(C(C)=O)c(OC)c1` [XANTHOXYLIN], the residual activity was determined as 104.3% in data set [1] and 128.7% in data set [2].

`O=C(O)c1cc(O)c2cccc(O)c2n1` [XANTHURENATE]: the results for the residual activity in data set [1] and in data set [2] were 99.4% and 115.8%, respectively.

For `CC1(C)C=Cc2cc3ccc(=O)oc3cc2O1` [XANTHYLETIN], the results for the residual activity in data set [1] and in data set [2] were 85.95% and 75.53%, respectively.

Regarding `Cc1cccc(C)c1N=C1NCCCS1` [XYLAZINE], the residual activity worked out at 83.59% in data set [1] and 64.31% in data set [2].

Regarding `COC(=O)CC1C(C)(C)C(OC(C)=O)[C@@H]2[C@@H](OC(C)=O)[C@]34O[C@@]2(O)[C@]1(C)C3CC[C@]1(C)C4=CC(=O)O[C@H]1c1ccoc1` (some centres not stated) [XYLOCARPUS A], the residual activity in data set [1] amounted to 9.764%; in data set [2] it was 22.54%.

Take `Cc1cc(C(C)(C)C)cc(C)c1CC1=NCCN1.Cl` [XYLOMETAZOLINE HYDROCHLORIDE]: the residual activity in data set [1] was 99.17%; in data set [2] it was 86.29%.

Take `CCCOc1ccccc1-c1nc2nn[nH]c2c(=O)[nH]1` [ZAPRINAST]: the residual activity in data set [1] was determined as 86.99%; in data set [2], 98.85%.

With `C[C@H]1CCCC(=O)CCC/C=C/c2cc(O)cc(O)c2C(=O)O1` [ZEARALENONE], the figures for the residual activity in data set [1] and in data set [2] were 91.51% and 55.9%, respectively.

Turning to `Cc1cn([C@H]2C[C@H](N=[N+]=[N-])[C@@H](CO)O2)c(=O)[nH]c1=O` [ZIDOVUDINE], the residual activity in data set [1] is listed as 95.75%; in data set [2], 134%.

For the compound `CN(C)CCc1c[nH]c2ccc(C[C@H]3COC(=O)N3)cc12` [ZOLMITRIPTAN], the residual activity was 102.5% in data set [1] and 95.98% in data set [2].

`Cc1ccc(-c2nc3ccc(C)cn3c2CC(=O)N(C)C)cc1` [ZOLPIDEM]: the residual activity in data set [1] is reported as 78.05%; in data set [2] it was 177.4%.

Consider `Cc1cc(CC(=O)[O-])n(C)c1C(=O)c1ccc(Cl)cc1.O.O.[Na+]` [ZOMEPIRAC SODIUM], for which the residual activity in data set [1] is 118.7%; in data set [2], 132.9%.

`N#C/C(=C\c1cccc(O)c1)C(=O)O` [alpha-CYANO-3-HYDROXYCINNAMIC ACID]: the residual activity was determined as 89.69% in data set [1] and 102.6% in data set [2].

With `N#C/C(=C\c1ccc(O)cc1)C(=O)O` [alpha-CYANO-4-HYDROXYCINNAMIC ACID], the residual activity in data set [1] is given as 105.3%; in data set [2] it was 112.8%.

On to `Cc1c(C)c2c(c(C)c1O)CCC(C)(CCCC(C)CCCC(C)CCCC(C)C)O2` (stereo not drawn) [alpha-TOCHOPHEROL], for which the residual activity in data set [1] amounted to 84.17%; in data set [2] it was 85.48%.

As to `CC(=O)O[C@H]1CC[C@]2(C)[C@H]3CC=C4[C@@H]5CC(C)(C)CC[C@]5(C)CC[C@@]4(C)[C@]3(C)CC[C@H]2C1(C)C` [beta-AMYRIN ACETATE], the values for the residual activity in data set [1] and in data set [2] were 110% and 113%, respectively.

With `CC1(C)CC[C@]2(C)CC[C@]3(C)C(=CC[C@@H]4[C@@]5(C)CC[C@H](O)C(C)(C)[C@@H]5CC[C@]43C)[C@@H]2C1` [beta-AMYRIN], the results for the residual activity in data set [1] and in data set [2] were 75.14% and 65.86%, respectively.

`CC12CCCC(O)(C1)C1CC(C)(C)C1CC2` (stereo not drawn) [beta-CARYOPHYLLENE ALCOHOL]: the residual activity amounted to 113% in data set [1] and 117.4% in data set [2].

Turning to `COc1cc2c(cc1OC)C1C(=O)c3c(cc4c(c3O)C=CC(C)(C)O4)OC1CO2` (stereo not drawn) [beta-TOXICAROL], the residual activity was 70.52% in data set [1] and 67.84% in data set [2].

Take `N=C(N)NCCC[C@@H](NC(=O)[C@@H](N)Cc1ccc(O)cc1)C(=O)O` [d[-Arg-2]KYOTORPHAN ACETATE]: the residual activity in data set [1] is 98.23%; in data set [2] it was 114.8%.

On to `Cc1ccc(O)cc1` [p-CRESOL], for which the residual activity is on record as 101.1% in data set [1] and 115% in data set [2].

What is called residual activity is the signal under treatment as a percentage of the control signal.

The record behind these values is ChEMBL document CHEMBL3039007, “Structure-based identification of OATP1B1/3 inhibitors” (Mol Pharmacol, 2013).
